Drawing on the OPERA property sets (Mansouri et al. 2018), this text covers logP for ten molecules.

By logP is commonly meant a log measure of how a compound divides between an organic and an aqueous phase. As for `CC(C)CN1C(=O)CC2CCC(C)C3CCC4(C)OOC23C1O4` (stereo not given), the logP came out at 3.66.

As for `CC1CCC2CC(=O)N(C)C3OC4(C)CCC1C23OO4` (stereo not given), the logP came out at 2.76.

Take `CC1CCC2CC(=O)N(Cc3ccc(Cl)cc3)C3OC4(C)CCC1C23OO4` (stereo not given): the logP came out at 4.32.

For `CC(C)CCN1C(=O)CC2CCC(C)C3CCC4(C)OOC23C1O4` (stereo not given), the log partition coefficient (logP) worked out at 4.16.

In turn, `C[C@@H]1CC[C@H]2[C@@H](C)C(=O)O[C@@H]3O[C@@]4(C)CC[C@@H]1[C@]32OO4` gave a log partition coefficient (logP) of 2.9.

Regarding `CC1CCC2CC(=O)N(CCCc3ccccc3)C3OC4(C)CCC1C23OO4` (stereo not given), the lipophilicity (logP) stood at 4.39.

For the molecule `CC1CCC2CC(=O)N(CC(=O)O)C3OC4(C)CCC1C23OO4` (stereo not given), the logP was 1.75.

Turning to `CCCN1C(=O)CC2CCC(C)C3CCC4(C)OOC23C1O4` (stereo not given), the logP is 3.4.

Molecule `CCCCCN1C(=O)CC2CCC(C)C3CCC4(C)OOC23C1O4` (stereo not given) came in with a lipophilicity (logP) of 4.24.

In turn, `CO[C@H]1O[C@@H]2O[C@@]3(C)CC[C@H]4[C@H](C)CC[C@@H]([C@H]1C)[C@@]24OO3` came in with a lipophilicity (logP) of 3.53.
